In article PMC5218480 (PLoS ONE, 2017):

Test system: MV-4-11 cells
Assay: Gene expression microarray analysis (Affymetrix PrimeView) and GSEA
Assay type: cell-based, human
Set-up: RFU PODN (11730768_x_at) / Fold change /veh PODN (11730768_x_at) / RFU LINC00158 (11744669_a_at) / Fold change /veh LINC00158 (11744669_a_at) / RFU DUSP10 (11751237_a_at) / Fold change /veh DUSP10 (11751237_a_at) / RFU ID3 (11757404_x_at) / Fold change /veh ID3 (11757404_x_at) / RFU PLEKHG5 (11737974_s_at) / Fold change /veh PLEKHG5 (11737974_s_at) / RFU LRRC4B (11730491_at) / Fold change /veh LRRC4B (11730491_at) / RFU GIMAP4 (11747438_a_at) / Fold change /veh GIMAP4 (11747438_a_at) / RFU KRT8 (11758183_x_at) / Fold change /veh KRT8 (11758183_x_at) / RFU CNN1 (11734310_a_at) / Fold change /veh CNN1 (11734310_a_at) / RFU VPS37D (11726825_at) / Fold change /veh VPS37D (11726825_at) / RFU C10orf10 (11716522_x_at) / Fold change /veh C10orf10 (11716522_x_at) / RFU KIR2DL2 /// KIR2DL4 /// KIR2DL5A /// KIR2DL5B /// KIR2DS1 /// KIR2DS2 /// KIR2DS3 /// KIR2DS4 /// KIR3DL3 /// KIR3DL3 /// KIR3DS1 (11738374_at) / Fold change /veh KIR2DL2 /// KIR2DL4 /// KIR2DL5A /// KIR2DL5B /// KIR2DS1 /// KIR2DS2 /// KIR2DS3 /// KIR2DS4 /// KIR3DL3 /// KIR3DL3 /// KIR3DS1 (11738374_at) / RFU C1QL1 (11718748_at) / Fold change /veh C1QL1 (11718748_at) / RFU TMPRSS4 (11747572_a_at) / Fold change /veh TMPRSS4 (11747572_a_at) / RFU HAMP (11756126_x_at) / Fold change /veh HAMP (11756126_x_at) / RFU RNFT2 (11725882_a_at) / Fold change /veh RNFT2 (11725882_a_at) / RFU NR4A2 (11747474_a_at) / Fold change /veh NR4A2 (11747474_a_at) / RFU ABCC12 (11746883_a_at) / Fold change /veh ABCC12 (11746883_a_at) / RFU TMEM136 (11760407_x_at) / Fold change /veh TMEM136 (11760407_x_at) / RFU CLDN22 /// WWC2 (11732394_at) / Fold change /veh CLDN22 /// WWC2 (11732394_at) / RFU HLA-DPB1 (11760878_x_at) / Fold change /veh HLA-DPB1 (11760878_x_at) / RFU SPINT1 (11716480_a_at) / Fold change /veh SPINT1 (11716480_a_at) / RFU GAP43 (11754022_s_at) / Fold change /veh GAP43 (11754022_s_at) / RFU A4GNT (11735810_at) / Fold change /veh A4GNT (11735810_at) / RFU PRB3 (11715151_x_at) / Fold change /veh PRB3 (11715151_x_at) / RFU TUBB4B (11761932_at) / Fold change /veh TUBB4B (11761932_at) / RFU CAPN14 (11732068_a_at) / Fold change /veh CAPN14 (11732068_a_at) / RFU TMCC2 (11721928_a_at) / Fold change /veh TMCC2 (11721928_a_at) / RFU IRGQ (11745062_a_at) / Fold change /veh IRGQ (11745062_a_at) / RFU FAM174B (11720279_a_at) / Fold change /veh FAM174B (11720279_a_at) / RFU TMPRSS4 (11748680_a_at) / Fold change /veh TMPRSS4 (11748680_a_at) / RFU FAM212B (11763350_a_at) / Fold change /veh FAM212B (11763350_a_at) / RFU PLEKHG5 (11743358_a_at) / Fold change /veh PLEKHG5 (11743358_a_at) / RFU ZSCAN30 (11745921_a_at) / Fold change /veh ZSCAN30 (11745921_a_at) / RFU CMKLR1 (11741424_a_at) / Fold change /veh CMKLR1 (11741424_a_at) / RFU LOC101060620 /// MAPK8IP1 (11723275_at) / Fold change /veh LOC101060620 /// MAPK8IP1 (11723275_at) / RFU SPTSSB (11747773_x_at) / Fold change /veh SPTSSB (11747773_x_at) / RFU PRSS12 (11739890_at) / Fold change /veh PRSS12 (11739890_at) / RFU BIN1 (11741810_x_at) / Fold change /veh BIN1 (11741810_x_at) / RFU WNT11 (11732464_a_at) / Fold change /veh WNT11 (11732464_a_at) / RFU C10orf10 (11716521_a_at) / Fold change /veh C10orf10 (11716521_a_at) / RFU C5orf56 (11738089_at) / Fold change /veh C5orf56 (11738089_at) / RFU CYB561 (11721691_x_at) / Fold change /veh CYB561 (11721691_x_at) / RFU ANKRD19P (11752326_a_at) / Fold change /veh ANKRD19P (11752326_a_at) / RFU OR2T12 /// OR2T33 /// OR2T8 (11738714_s_at) / Fold change /veh OR2T12 /// OR2T33 /// OR2T8 (11738714_s_at) / RFU VCAN (11748164_a_at) / Fold change /veh VCAN (11748164_a_at) / RFU JSRP1 (11732532_at) / Fold change /veh JSRP1 (11732532_at) / RFU KRTAP10-11 (11738290_x_at) / Fold change /veh KRTAP10-11 (11738290_x_at) / RFU MYO3A (11730013_a_at) / Fold change /veh MYO3A (11730013_a_at) / RFU EBF3 (11725865_a_at) / Fold change /veh EBF3 (11725865_a_at) / RFU CAMK2N1 (11719241_x_at) / Fold change /veh CAMK2N1 (11719241_x_at) / RFU C5orf56 (11738088_a_at) / Fold change /veh C5orf56 (11738088_a_at) / RFU OLFML3 (11715873_a_at) / Fold change /veh OLFML3 (11715873_a_at) / RFU LOC100653217 /// NTM (11731650_a_at) / Fold change /veh LOC100653217 /// NTM (11731650_a_at) / RFU MAPK11 (11762145_a_at) / Fold change /veh MAPK11 (11762145_a_at) / RFU FIZ1 (11724087_x_at) / Fold change /veh FIZ1 (11724087_x_at) / RFU OASL (11726364_x_at) / Fold change /veh OASL (11726364_x_at) / RFU SOX15 (11748057_x_at) / Fold change /veh SOX15 (11748057_x_at) / RFU CD79A (11719716_a_at) / Fold change /veh CD79A (11719716_a_at) / RFU HIST1H1D (11736915_at) / Fold change /veh HIST1H1D (11736915_at) / RFU CASKIN2 (11723855_a_at) / Fold change /veh CASKIN2 (11723855_a_at) / RFU LOC730098 (11760151_x_at) / Fold change /veh LOC730098 (11760151_x_at) / RFU OR4N2 (11742367_at) / Fold change /veh OR4N2 (11742367_at) / RFU PRRT2 (11749266_a_at) / Fold change /veh PRRT2 (11749266_a_at) / RFU SNX32 (11753110_a_at) / Fold change /veh SNX32 (11753110_a_at) / RFU CDHR5 (11726645_a_at) / Fold change /veh CDHR5 (11726645_a_at) / RFU RCAN1 (11760418_a_at) / Fold change /veh RCAN1 (11760418_a_at) / RFU FAM167A (11723789_a_at) / Fold change /veh FAM167A (11723789_a_at) / RFU FAM26E (11764081_at) / Fold change /veh FAM26E (11764081_at) / RFU ISYNA1 (11749810_s_at) / Fold change /veh ISYNA1 (11749810_s_at) / RFU ACY1 (11761880_at) / Fold change /veh ACY1 (11761880_at) / RFU 11764098_at / Fold change /veh 11764098_at / RFU SAMD14 (11745864_x_at) / Fold change /veh SAMD14 (11745864_x_at) / RFU NPB (11741838_a_at) / Fold change /veh NPB (11741838_a_at) / RFU TMPRSS6 (11731388_a_at) / Fold change /veh TMPRSS6 (11731388_a_at) / RFU KRTAP10-2 (11738614_at) / Fold change /veh KRTAP10-2 (11738614_at) / RFU ARHGAP8 /// PRR5-ARHGAP8 (11727945_x_at) / Fold change /veh ARHGAP8 /// PRR5-ARHGAP8 (11727945_x_at) / RFU KRTAP5-7 /// NADSYN1 (11734609_at) / Fold change /veh KRTAP5-7 /// NADSYN1 (11734609_at) / RFU RASL12 (11751679_a_at) / Fold change /veh RASL12 (11751679_a_at) / RFU CDKN2B (11736163_a_at) / Fold change /veh CDKN2B (11736163_a_at) / RFU PRF1 (11729649_at) / Fold change /veh PRF1 (11729649_at) / RFU, ZNF638 /// ZNF638-IT1 / Fold change vs veh, ZNF638 /// ZNF638-IT1 / RFU, PANK3 / Fold change vs veh, PANK3 / RFU, SH3YL1 / Fold change vs veh, SH3YL1 / RFU, ZEB2 / Fold change vs veh, ZEB2 / RFU, NRIP1 / Fold change vs veh, NRIP1 / RFU, PTTG1IP / Fold change vs veh, PTTG1IP / RFU, CAPN2 / Fold change vs veh, CAPN2 / RFU, MED14 / Fold change vs veh, MED14 / RFU, SNORA58 / Fold change vs veh, SNORA58 / RFU, C1orf63 / Fold change vs veh, C1orf63 / RFU, LRRFIP1 / Fold change vs veh, LRRFIP1 / RFU, NDUFAF7 / Fold change vs veh, NDUFAF7 / RFU, SLC12A2 / Fold change vs veh, SLC12A2 / RFU, IBTK / Fold change vs veh, IBTK / RFU, ESF1 / Fold change vs veh, ESF1 / Fold change vs veh, TMEM50B / RFU, TAOK1 / Fold change vs veh, TAOK1 / RFU, ACBD3 / Fold change vs veh, ACBD3 / RFU, TMA16 / Fold change vs veh, TMA16 / RFU, RWDD3 / Fold change vs veh, RWDD3 / RFU, BCAT1 / Fold change vs veh, BCAT1 / RFU, EDEM3 / Fold change vs veh, EDEM3 / RFU, TMEM33 / Fold change vs veh, TMEM33 / RFU, WDR75 / Fold change vs veh, WDR75 / RFU, AHCTF1 / Fold change vs veh, AHCTF1 / RFU, TFRC / Fold change vs veh, TFRC / RFU, ZDHHC17 / Fold change vs veh, ZDHHC17 / RFU, NOM1 / Fold change vs veh, NOM1 / RFU, ARL8B / Fold change vs veh, ARL8B / RFU, ZBTB11 / Fold change vs veh, ZBTB11 / RFU, TAMM41 / Fold change vs veh, TAMM41 / RFU, KIAA1704 /// LOC100996395 / Fold change vs veh, KIAA1704 /// LOC100996395 / RFU, ING1 / Fold change vs veh, ING1 / RFU, TRMT61B / Fold change vs veh, TRMT61B / RFU, FUBP3 / Fold change vs veh, FUBP3 / RFU, TP53 / Fold change vs veh, TP53 / RFU, TNKS2 / Fold change vs veh, TNKS2 / RFU, ZFP14 / Fold change vs veh, ZFP14 / RFU, ACTR2 / Fold change vs veh, ACTR2 / RFU, PPP3R1 / Fold change vs veh, PPP3R1 / RFU, PIK3R1 / Fold change vs veh, PIK3R1 / RFU, HNRNPA1 / Fold change vs veh, HNRNPA1 / RFU, RNF170 / Fold change vs veh, RNF170 / RFU, ZNF28 / Fold change vs veh, ZNF28 / RFU, RNGTT / Fold change vs veh, RNGTT / RFU, OGT / Fold change vs veh, OGT / RFU, BRD1 / Fold change vs veh, BRD1 / RFU, MARS / Fold change vs veh, MARS / RFU, ZNF655 / Fold change vs veh, ZNF655 / RFU, FAHD1 / Fold change vs veh, FAHD1 / RFU, BDP1 / Fold change vs veh, BDP1 / RFU, LRRCC1 / Fold change vs veh, LRRCC1 / RFU, ARID1A / Fold change vs veh, ARID1A / RFU, ZNF146 / Fold change vs veh, ZNF146 / RFU, ZNF330 / Fold change vs veh, ZNF330 / RFU, GPN3 / Fold change vs veh, GPN3 / RFU, C9orf123 / Fold change vs veh, C9orf123 / RFU, N4BP2L2 / Fold change vs veh, N4BP2L2 / RFU, ARFIP1 / Fold change vs veh, ARFIP1 / RFU, FAM179B / Fold change vs veh, FAM179B / RFU, BCL10 / Fold change vs veh, BCL10 / RFU, UHRF1BP1L / Fold change vs veh, UHRF1BP1L / RFU, BET1 / Fold change vs veh, BET1 / RFU, CNOT2 / Fold change vs veh, CNOT2 / RFU, ZNF268 / Fold change vs veh, ZNF268 / Fold change vs veh, ZNF507 / RFU, DGCR2 / Fold change vs veh, DGCR2 / RFU, WDSUB1 / Fold change vs veh, WDSUB1 / Fold change vs veh, HSP90B1 /// MIR3652 / RFU, ADSS / Fold change vs veh, ADSS / RFU, GK / Fold change vs veh, GK / RFU, ZNF148 / Fold change vs veh, ZNF148 / RFU, TAF9 / Fold change vs veh, TAF9 / RFU, SLC1A5 / Fold change vs veh, SLC1A5 / RFU, SLMO2 / Fold change vs veh, SLMO2 / RFU, ABCC4 / Fold change vs veh, ABCC4 / RFU, LOC101060439 /// RAP1B / Fold change vs veh, LOC101060439 /// RAP1B / RFU, RFX7 / Fold change vs veh, RFX7 / RFU, GTPBP10 / Fold change vs veh, GTPBP10 / RFU, CNEP1R1 / Fold change vs veh, CNEP1R1 / RFU, BIVM-ERCC5 /// ERCC5 / Fold change vs veh, BIVM-ERCC5 /// ERCC5 / RFU, ILF3 / Fold change vs veh, ILF3 / RFU 11762660_at / Fold change /veh 11762660_at / RFU VCAN (11757783_s_at) / Fold change /veh VCAN (11757783_s_at) / RFU DDX43 (11728927_at) / Fold change /veh DDX43 (11728927_at) / RFU KRT8 (11758188_x_at) / Fold change /veh KRT8 (11758188_x_at) / RFU NKD1 (11759106_at) / Fold change /veh NKD1 (11759106_at) / RFU SRD5A1 (11742802_a_at) / Fold change /veh SRD5A1 (11742802_a_at) / RFU TPSAB1 /// TPSB2 (11721975_s_at) / Fold change /veh TPSAB1 /// TPSB2 (11721975_s_at) / RFU GSTM3 (11746129_a_at) / Fold change /veh GSTM3 (11746129_a_at) / RFU IL23R (11737362_x_at) / Fold change /veh IL23R (11737362_x_at) / RFU TMEM51 (11727254_a_at) / Fold change /veh TMEM51 (11727254_a_at) / RFU PIWIL2 (11732686_x_at) / Fold change /veh PIWIL2 (11732686_x_at) / RFU ORM1 (11744905_x_at) / Fold change /veh ORM1 (11744905_x_at) / RFU CCDC152 (11743942_at) / Fold change /veh CCDC152 (11743942_at) / RFU ECM1 (11717891_a_at) / Fold change /veh ECM1 (11717891_a_at) / RFU IL23R (11748794_a_at) / Fold change /veh IL23R (11748794_a_at) / RFU TNFAIP8L3 (11732012_x_at) / Fold change /veh TNFAIP8L3 (11732012_x_at) / RFU MBOAT4 (11741988_at) / Fold change /veh MBOAT4 (11741988_at) / RFU 11764193_at / Fold change /veh 11764193_at / RFU TMEM53 (11763286_at) / Fold change /veh TMEM53 (11763286_at) / RFU MAGEB2 (11727129_at) / Fold change /veh MAGEB2 (11727129_at) / RFU TMEM200A (11744735_a_at) / Fold change /veh TMEM200A (11744735_a_at) / RFU CCDC152 (11751479_a_at) / Fold change /veh CCDC152 (11751479_a_at) / RFU FAM211A (11726209_a_at) / Fold change /veh FAM211A (11726209_a_at) / RFU RGS16 (11746705_a_at) / Fold change /veh RGS16 (11746705_a_at) / RFU VCAN (11755009_s_at) / Fold change /veh VCAN (11755009_s_at) / RFU RHOB (11743442_s_at) / Fold change /veh RHOB (11743442_s_at) / RFU RGS16 (11720943_a_at) / Fold change /veh RGS16 (11720943_a_at) / RFU RGS16 (11720944_at) / Fold change /veh RGS16 (11720944_at) / RFU, VPS4B / Fold change vs veh, VPS4B / RFU, CREB1 / Fold change vs veh, CREB1 / RFU, DNAJC13 / Fold change vs veh, DNAJC13 / RFU, GNAQ / Fold change vs veh, GNAQ / RFU, CDK5R1 / Fold change vs veh, CDK5R1 / RFU, ZRANB3 / Fold change vs veh, ZRANB3 / RFU, CUL4A / Fold change vs veh, CUL4A / RFU, CCNY / Fold change vs veh, CCNY / RFU, UFL1 / Fold change vs veh, UFL1 / RFU, COG3 / Fold change vs veh, COG3 / RFU, DIAPH2 / Fold change vs veh, DIAPH2 / RFU, SKA2 / Fold change vs veh, SKA2 / RFU, AFF3 / Fold change vs veh, AFF3 / RFU, LMF1 / Fold change vs veh, LMF1 / RFU, IPO11 / Fold change vs veh, IPO11 / RFU, DFFB / Fold change vs veh, DFFB / RFU, FOXP1 / Fold change vs veh, FOXP1 / RFU, CARD8 / Fold change vs veh, CARD8 / RFU, STRN3 / Fold change vs veh, STRN3 / RFU, ADK / Fold change vs veh, ADK / RFU, RASSF2 / Fold change vs veh, RASSF2 / RFU, WIPF1 / Fold change vs veh, WIPF1 / RFU, LARP1B / Fold change vs veh, LARP1B / RFU, RASA1 / Fold change vs veh, RASA1 / RFU, RB1 / Fold change vs veh, RB1 / RFU, PPFIA1 / Fold change vs veh, PPFIA1 / RFU, MAT2A / Fold change vs veh, MAT2A / RFU, CCT5 / Fold change vs veh, CCT5 / RFU, WDR92 / Fold change vs veh, WDR92 / RFU, CUX1 / Fold change vs veh, CUX1 / RFU, TTC7A / Fold change vs veh, TTC7A / RFU, TMEM135 / Fold change vs veh, TMEM135 / RFU, DEPTOR / Fold change vs veh, DEPTOR / RFU, CPM / Fold change vs veh, CPM / RFU, DNAJB6 / Fold change vs veh, DNAJB6 / RFU, CACNA2D3 / Fold change vs veh, CACNA2D3 / RFU, DTX4 / Fold change vs veh, DTX4 / RFU, TFCP2 / Fold change vs veh, TFCP2 / RFU, GMCL1 /// GMCL1P1 / Fold change vs veh, GMCL1 /// GMCL1P1 / RFU, AEBP2 / Fold change vs veh, AEBP2 / RFU, SNHG1 /// SNORD22 /// SNORD25 /// SNORD26 /// SNORD27 /// SNORD28 /// SNORD29 /// SNORD31 / Fold change vs veh, SNHG1 /// SNORD22 /// SNORD25 /// SNORD26 /// SNORD27 /// SNORD28 /// SNORD29 /// SNORD31 / Fold change (Aza/veh), C12orf56 (ProbeSet 11735607_a_at) / Fold change (ACY-1035/veh), C12orf56 (ProbeSet 11735607_a_at) / Fold change (Aza/veh), FGFR1OP (ProbeSet 11751329_s_at) / Fold change (ACY-1035/veh), FGFR1OP (ProbeSet 11751329_s_at) / Fold change (Aza/veh), VPS36 (ProbeSet 11739960_a_at) / Fold change (ACY-1035/veh), VPS36 (ProbeSet 11739960_a_at) / RFU SYPL1 (11715823_x_at) / Fold change /veh SYPL1 (11715823_x_at) / RFU IGFBP7 (11715501_s_at) / Fold change /veh IGFBP7 (11715501_s_at) / RFU REEP3 (11722064_at) / Fold change /veh REEP3 (11722064_at) / RFU IGLL1 (11728026_x_at) / Fold change /veh IGLL1 (11728026_x_at): dose or concentration left out as unconfirmed
Conditions: ProbeSet 11758779_at; LIST B

Compound: Nc1ccc(-c2cccs2)cc1NC(=O)c1ccc2c(c1)cc(C1CC1)n2CCN1CCOCC1 [ACY-1035]
- Fold change vs veh, TMEM50B: 0.95
